The source made the active and inactive calls. The calls are words filed in the database; no cut-off is given here.

In assay [1] the test system is Platelet. Description: Induction of platelet aggregation in New Zealand white rabbit ear vein plasma assessed as LDH activity at 0.36 mM. Particulars: Oryctolagus cuniculus. The format is functional, cell-based.
For assay [2], the species on record is Oryctolagus cuniculus. In words: Inhibition of FAAH in New Zealand white rabbit ear vein platelets assessed as [3H]anandamide hydrolysis at 1.5 uM.
For assay [3], the species on record is Oryctolagus cuniculus. Description: Inhibition of FAAH in New Zealand white rabbit ear vein platelet assessed as [3H]anandamide hydrolysis at 7.5 uM.
Assay [4] relates to Platelet. In words: Induction of platelet aggregation in New Zealand white rabbit ear vein plasma at 18 uM to 70 uM. The format is functional, cell-based. The note with it: Oryctolagus cuniculus.
Assay [5] deals with Platelet. In words: Induction of platelet aggregation in New Zealand white rabbit ear vein plasma in presence of PMSF. The format is functional, Oryctolagus cuniculus.
In assay [6] the test system is Platelet. Description: Induction of in New Zealand white rabbit ear vein plasma in presence of URB597. Particulars: Oryctolagus cuniculus. The format is functional, cell-based.
Assay [7] has as its system Platelet. Description: Induction of platelet aggregation in New Zealand white rabbit ear vein plasma at 100 uM to 1000 uM. The format is functional, cell-based. The note with it: Oryctolagus cuniculus.
For assay [8], the system named is Platelet. Description: Induction of platelet aggregation in New Zealand white rabbit ear vein plasma in presence of aspirin. The format is functional, cell-based. Particulars: Oryctolagus cuniculus.
Assay [9] deals with Platelet. Description: Induction of platelet aggregation in New Zealand white rabbit ear vein plasma in presence of indomethacin. The class given is functional, cell-based. The note with it: Oryctolagus cuniculus.
Assay [10] has as its system Platelet. Description: Inhibition of PAF-induced platelet aggregation in New Zealand white rabbit ear vein plasma. The note with it: Oryctolagus cuniculus. The class given is functional, cell-based.

For `CCCCC/C=C\C/C=C\C/C=C\C/C=C\CCCC(=O)NCCO`, the Activity entry with Platelet [1] is “Dose-dependent effect”. Also, the result in the assay listed under Oryctolagus cuniculus [2] and in the assay listed under Oryctolagus cuniculus [3] was Active.

As for `CCCCC/C=C/C/C=C/C/C=C/C/C=C/CCCC(=O)NCCO`, the Activity result in the assay with Platelet [4] and in the assay on Platelet [7] was “Dose-dependent effect” each time. Further, the “inhibition (INH)” value with Platelet [5] was found to be 20%. In addition, in the assay on Platelet [6], the result was inactive. Further, the outcome in the assay with Platelet [1], in the assay listed under Oryctolagus cuniculus [2], with Platelet [8], in the assay with Platelet [9] and in the assay filed under Oryctolagus cuniculus [3] was Active. The compound further had an IC50 in the assay on Platelet [10] of 4.7 µM.

Source of the values: ChEMBL document CHEMBL1144210, “Synthesis of all-trans anandamide: a substrate for fatty acid amide hydrolase with dual effects on rabbit platelet activation” (Bioorg Med Chem, 2008).
